Residues, ends and D or L forms follow the SMILES beside them.
Tests used:
[1] = system: HLA matched chronic myelogenous leukemia cell lines or CML blasts; details: T cells generated with analogue peptide
Procedure: Supernatant fluids were harvested and radioactivity was measured in a gamma counter. Percent specific lysis was determined from the following formula: 100×[(experimental release minus spontaneous release)/(maximum release minus spontaneous release)].

CD8+ T cells = test: Gamma interferon ELISPOT, CD8+ T cells after in vitro peptide stimulation; format: cell-based, human; details: healthy HLA A0201 donors, peptide-pulsed T2 targets
[2] = target: T1, HLA-A0201 molecules on T2 cells (Homo sapiens, UniProt P04439, D140Y/D185E/D98H/E176V/E277Q/G131W/G231S/I119V/I121R/I166T/I218V/L300P/L318F/N151K/N90K/P208A/P217A/Q86G/Q94H/R138H/R169H/T345S); test: T2 assay for peptide binding to HLA A0201; details: for binding to HLA A0201 molecules in T2 assay: bcr-abl b3a2 and b2a2 peptides
T1 construct: increase in the level of surface HLA-A0201 recognizable by specific mAb such as BB7.2; endogenous in cells; host or cells: T2 cells (human, TAP-deficient, HLA-A0201+)
Procedure: T2 cells (TAP−, HLA-A0201 +) were incubated overnight at 27° C. at 1×10E6 cells/ml in FCS-free RPMI medium supplemented with 5 μg/ml human β2 m (Sigma, St Louis, Mo.) in the absence, i.e., negative control, or presence of either a positive reference tyrosinase peptide or test peptides at various final concentrations of 50, 10, 1, and 0.1 μg/ml. Following a 4 h incubation with 5 μg/ml brefeldin A (Sigma), T2 cells were labeled for 30 min at 4° C. with a saturating concentration of anti-HLA-A2.1 (BB7.2) mAb, then washed twice. The cells then were incubated for 30 min at 4° C. with a saturating concentration of FITC-conjugated goat IgG F(ab′)2 anti-mouse Ig (Caltag, South San Francisco, Calif.), washed twice, fixed in PBS/1% paraformaldehyde and analyzed using a FACS Calibur cytofluorometer (Becton Dickinson, Immunocytometry systems, San Jose, Calif.).
The mean intensity of fluorescence (MIF) observed for each peptide concentration, after subtraction of the MIF observed without peptide, was used as an estimate of peptide binding. Stabilization assays were performed similarly. Following initial evaluation of peptide binding at time 0, cells were washed in RPMI complete medium to remove free peptides and incubated in the continuous presence of 0.5 μg/ml brefeldin-A for 2, 4, 6, and 8 hours. The amount of stable peptide-HLA-A2.1 complexes was estimated as described above by indirect immunofluorescence analysis. The half time of complexes is an estimate of the time required for a 50% reduction of the time 0 mean intensity of fluorescence value.
The immunogenicity of MHC class I-restricted peptides requires the capacity to bind and stabilize MHC class I molecules on the live cell surface. Moreover the computer prediction models above have only 60-80% predictive accuracy. Direct measurement of the strength of the interaction between the peptides and the HLA-A0201 molecule was made using a conventional binding and stabilization assay that uses the antigen-transporting deficient (TAP2-) HLA-A0201 human T2 cells. T2 cells lack TAP function and consequently are defective in properly loading class I molecules with antigenic peptides generated in the cytosol. The association of exogenously added peptides with thermolabile, empty HLA-A2 molecules stabilizes them and results in an increase in the level of surface HLA-A0201 recognizable by specific mAb such as BB7.2.

CD3+ T cells = test: Gamma interferon ELISPOT, CD3+ T cells after in vitro peptide stimulation; format: cell-based, human; details: healthy HLA A0201 donors
HLA A0201 = HLA A0201 (Homo sapiens, UniProt P04439, D140Y/D185E/D98H/E176V/E277Q/G131W/G231S/I119V/I121R/I166T/I218V/L300P/L318F/N151K/N90K/P208A/P217A/Q86G/Q94H/R138H/R169H/T345S); test: BIMAS predicted binding score for HLA A0201; details: p210F versus native CMLA2
Procedure: The synthetic peptide analogue segments are designed by making one or two amino acid substitutions in anchor or auxiliary residues. Although the native peptides particularly described herein are nonamers encompassing the anchor or auxiliary residues, analogues may be designed having about 70% to about 130% of the amino acids in the native peptide. In the instant invention the synthetic peptide analogues may have about 8-12 amino acids. Such substitutions are determined by a bioinformatic model system (BIMAS) which uses a matrix approach to predict binding and ranks the peptides based on predicted binding to the HLA molecule. The amino acid sequences and predicted score for binding to HLA A0201 and HLA A0301 are generated by online software BIMAS available at http://bimas.dcrt.nih.gov/cgi-bin/molbio/ken parker comboform and […] available at http://syfpeithi.bmi-heidelberg.com/.
Based on this information and by using the software of the Bioinformatics & Molecular Analysis Section (National Institutes of Health, Washington, D.C.) available at http://bimas.dcrt.nih.gov/cgi-bin/molbio/ken parker comboform. This software ranks 9-mer or 10-mer peptides on a predicted half-time dissociation coefficient from HLA class I molecules (Pinilla, et al. Curr Opin Immunol, 11(2): p. 193-202 (1999)). […]

CC[C@H](C)[C@H](NC(=O)[C@H](CC(C)C)NC(=O)[C@@H](N)Cc1ccc(O)cc1)C(=O)N[C@@H](CC(N)=O)C(=O)N[C@@H](CCCCN)C(=O)N[C@@H](CCC(=O)O)C(=O)N[C@@H](CCC(=O)O)C(=O)N[C@@H](C)C(=O)N[C@@H](CC(C)C)C(=O)O [b3a2 A3, YLINKEEAL] (H-YLINKEEAL-OH; N-terminus and C-terminus assumed)
cytotoxicity against CML cells expressing b3a2 or b2a2 [1]: Significant cytotoxicity was generated

CC(C)C[C@H](NC(=O)[C@H](CC(C)C)NC(=O)[C@@H](N)CCCCN)C(=O)N[C@@H](CCC(N)=O)C(=O)N[C@@H](CCCNC(=N)N)C(=O)N1CCC[C@H]1C(=O)N[C@H](C(=O)N[C@@H](C)C(=O)N[C@H](C(=O)O)C(C)C)C(C)C [p210C] (H-KLLQRPVAV-OH; N-terminus and C-terminus assumed)
cytotoxicity against CML cells expressing b3a2 or b2a2 [1]: Significant cytotoxicity was generated

KLSSKALQV (analogue peptide p210B)
immune response, IFN gamma secretion (CD8+ T cells): No immune response could be generated

KQSSKALQV (analogue peptide p210A)
immune response, IFN gamma secretion (CD8+ T cells): No immune response could be generated

SSKALQRPV (native peptide CMLA2) [reference compound]
binding to HLA A0201 molecules in T2 assay [2]: weak binder
binding to HLA A0201 molecules in T2 assay ([2]; listed as CML A2): natural weak binder

TLFKQSSKV (analogue peptide p210D)
immune response, IFN gamma secretion (CD8+ T cells): produced an immune response in some of the donors tested

YLFKQSSKV (analogue peptide p210E)
immune response, IFN gamma secretion (CD8+ T cells): produced an immune response in some of the donors tested

YLGATLKGV (analogue peptide WT-1 D1)
binding to HLA A0201, thermostabilization on T2 ([2]; WT-1 peptides): significantly higher level of binding to HLA-A0201 over WT1-D

YLINKEEAV (analogue peptide b3a2 A4)
immune response, gamma interferon secretion (CD3+ T cells): generated an immune response in two healthy donors

YLINKVEAL (analogue peptide b3a2 A5)
immune response, gamma interferon secretion (CD3+ T cells): generated an immune response in two healthy donors

YLKALQRPV (analogue peptide p210F)
BIMAS prediction improvement (HLA A0201): 700 fold
binding to HLA A0201 molecules in T2 assay [2]: excellent avidity for HLA A0201 molecules
immune response, IFN gamma secretion (CD8+ T cells): generated a more consistent and higher immune-responses

Reference: patent publication US7488718B2, “Synthetic HLA binding peptide analogues and uses thereof” (Sloan Kettering Institue for Cancer Research, priority 2003, dated 2009)
